Test results published in patent US8604217B2, “Compound, a process for its preparation, a pharmaceutical composition, use of a compound, a method for modulating or regulating serine/threonine kinases and a serine/threonine kinases modulating agent” (Selvita S.A., priority 2009, dated 2013).

Legend:
Assay in all cases: KinaseProfiler kinase panel
[1] = biological target: PIM-1(h) (Homo sapiens (Human), UniProt P11309); type: biochemical
[2] = biological target: cKit(D816H)(h) (Homo sapiens (Human), UniProt P10721, D816H); type: biochemical
cKit(D816H)(h), sequence (P10721 26-976 D816H): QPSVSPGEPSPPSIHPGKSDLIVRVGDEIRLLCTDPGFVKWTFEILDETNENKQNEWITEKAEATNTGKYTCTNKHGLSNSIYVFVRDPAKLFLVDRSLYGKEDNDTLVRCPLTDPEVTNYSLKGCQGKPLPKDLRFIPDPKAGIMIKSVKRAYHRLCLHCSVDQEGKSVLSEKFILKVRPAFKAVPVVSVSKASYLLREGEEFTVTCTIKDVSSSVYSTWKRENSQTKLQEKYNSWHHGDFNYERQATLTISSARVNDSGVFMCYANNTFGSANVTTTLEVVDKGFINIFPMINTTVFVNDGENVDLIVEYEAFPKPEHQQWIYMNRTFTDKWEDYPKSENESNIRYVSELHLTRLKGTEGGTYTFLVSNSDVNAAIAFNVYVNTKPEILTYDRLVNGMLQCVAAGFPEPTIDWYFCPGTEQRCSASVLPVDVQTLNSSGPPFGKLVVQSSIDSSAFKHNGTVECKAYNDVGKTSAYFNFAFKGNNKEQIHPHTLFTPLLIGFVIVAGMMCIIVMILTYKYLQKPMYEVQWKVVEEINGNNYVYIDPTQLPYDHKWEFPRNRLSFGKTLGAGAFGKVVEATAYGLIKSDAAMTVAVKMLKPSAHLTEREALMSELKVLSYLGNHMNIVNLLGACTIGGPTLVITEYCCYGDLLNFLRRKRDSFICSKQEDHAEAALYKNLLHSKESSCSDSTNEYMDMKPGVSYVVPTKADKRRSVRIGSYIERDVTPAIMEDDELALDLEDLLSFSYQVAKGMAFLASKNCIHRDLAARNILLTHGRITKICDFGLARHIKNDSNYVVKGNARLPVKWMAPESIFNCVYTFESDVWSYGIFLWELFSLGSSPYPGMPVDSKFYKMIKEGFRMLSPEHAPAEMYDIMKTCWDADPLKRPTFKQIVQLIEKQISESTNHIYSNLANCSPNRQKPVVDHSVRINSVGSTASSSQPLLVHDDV

[3] = biological target: CDK2/cyclinA(h) (Homo sapiens (Human), UniProt P24941); type: biochemical
[4] = biological target: PKG1α(h) (Homo sapiens (Human), UniProt Q13976); type: biochemical
[5] = biological target: CDK3/cyclinE(h) (Homo sapiens (Human), UniProt Q00526); type: biochemical
[6] = biological target: Flt4(h) (Homo sapiens (Human), UniProt P35916); type: biochemical
[7] = biological target: Mnk2(h) (Homo sapiens (Human), UniProt Q9HBH9); type: biochemical
[8] = biological target: Ret(V804M)(h) (Homo sapiens (Human), UniProt P07949, V804M); type: biochemical
[9] = biological target: PKCθ(h) (Homo sapiens (Human), UniProt Q04759); type: biochemical
[10] = biological target: TRKA(h) (Homo sapiens (Human), UniProt P04629); type: biochemical
[11] = biological target: TRKB(h) (Homo sapiens (Human), UniProt Q16620); type: biochemical
[12] = biological target: LOK(h) (Homo sapiens (Human), UniProt O94804); type: biochemical
[13] = biological target: IKKα(h) (Homo sapiens (Human), UniProt O15111); type: biochemical
[14] = biological target: Hck(h) activated (Homo sapiens (Human), UniProt P08631); type: biochemical
Hck(h) activated, sequence (P08631 whole entry): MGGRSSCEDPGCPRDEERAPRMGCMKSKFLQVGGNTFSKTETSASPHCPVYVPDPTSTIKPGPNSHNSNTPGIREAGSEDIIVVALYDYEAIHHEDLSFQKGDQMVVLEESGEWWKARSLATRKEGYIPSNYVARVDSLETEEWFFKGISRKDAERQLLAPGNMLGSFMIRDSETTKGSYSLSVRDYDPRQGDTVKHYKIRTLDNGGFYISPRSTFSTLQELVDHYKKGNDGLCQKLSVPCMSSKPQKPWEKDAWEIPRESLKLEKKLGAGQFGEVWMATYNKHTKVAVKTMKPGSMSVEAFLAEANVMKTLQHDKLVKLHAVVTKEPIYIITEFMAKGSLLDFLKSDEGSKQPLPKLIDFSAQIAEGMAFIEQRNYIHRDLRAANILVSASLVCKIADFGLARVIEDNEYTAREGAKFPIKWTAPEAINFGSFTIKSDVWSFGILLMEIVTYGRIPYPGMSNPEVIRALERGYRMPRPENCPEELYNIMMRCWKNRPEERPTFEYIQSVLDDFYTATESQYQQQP

[15] = biological target: MST1(h) (Homo sapiens (Human), UniProt Q13043); type: biochemical
[16] = biological target: JAK3(h) (Homo sapiens (Human), UniProt P52333); type: biochemical
[17] = biological target: PrKX(h) (Homo sapiens (Human), UniProt P51817); type: biochemical
PrKX(h), sequence (P51817 whole entry): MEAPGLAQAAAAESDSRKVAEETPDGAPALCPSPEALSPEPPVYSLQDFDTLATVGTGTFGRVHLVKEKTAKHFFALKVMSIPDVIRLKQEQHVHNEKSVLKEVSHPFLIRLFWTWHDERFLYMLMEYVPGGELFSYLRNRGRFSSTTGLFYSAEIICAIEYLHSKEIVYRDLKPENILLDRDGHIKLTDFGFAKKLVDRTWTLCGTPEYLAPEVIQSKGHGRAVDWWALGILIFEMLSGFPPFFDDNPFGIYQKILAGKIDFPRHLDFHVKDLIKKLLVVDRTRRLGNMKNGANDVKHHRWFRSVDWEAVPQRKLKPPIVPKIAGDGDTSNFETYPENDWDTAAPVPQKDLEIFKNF

[18] = biological target: BRK(h) (Homo sapiens (Human), UniProt Q13882); type: biochemical
[19] = biological target: SGK2(h) (Homo sapiens (Human), UniProt Q9HBY8); type: biochemical
[20] = biological target: TAO2(h) (Homo sapiens (Human), UniProt Q9UL54); type: biochemical
[21] = biological target: CK1γ1(h) (Homo sapiens (Human), UniProt Q9HCP0); type: biochemical
CK1γ1(h), sequence (Q9HCP0 whole entry): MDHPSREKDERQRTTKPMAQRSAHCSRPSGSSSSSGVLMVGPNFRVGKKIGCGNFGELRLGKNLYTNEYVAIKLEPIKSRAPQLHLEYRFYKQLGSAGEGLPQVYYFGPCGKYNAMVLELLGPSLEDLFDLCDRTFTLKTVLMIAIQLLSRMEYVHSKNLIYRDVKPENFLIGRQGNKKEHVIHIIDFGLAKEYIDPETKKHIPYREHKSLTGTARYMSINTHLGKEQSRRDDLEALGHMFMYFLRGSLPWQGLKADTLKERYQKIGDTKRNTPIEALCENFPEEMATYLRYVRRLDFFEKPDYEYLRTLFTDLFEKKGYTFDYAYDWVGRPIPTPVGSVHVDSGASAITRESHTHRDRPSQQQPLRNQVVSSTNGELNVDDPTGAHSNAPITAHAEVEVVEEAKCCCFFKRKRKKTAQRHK

[22] = biological target: IGF-1R(h), activated (Homo sapiens (Human), UniProt P08069); type: biochemical
[23] = tested on: MLCK(h); type: biochemical, human; conditions: 1 μM
[24] = biological target: Abl(m) (Mus musculus (Mouse), UniProt P00520); type: biochemical
Abl(m), sequence (P00520 whole entry): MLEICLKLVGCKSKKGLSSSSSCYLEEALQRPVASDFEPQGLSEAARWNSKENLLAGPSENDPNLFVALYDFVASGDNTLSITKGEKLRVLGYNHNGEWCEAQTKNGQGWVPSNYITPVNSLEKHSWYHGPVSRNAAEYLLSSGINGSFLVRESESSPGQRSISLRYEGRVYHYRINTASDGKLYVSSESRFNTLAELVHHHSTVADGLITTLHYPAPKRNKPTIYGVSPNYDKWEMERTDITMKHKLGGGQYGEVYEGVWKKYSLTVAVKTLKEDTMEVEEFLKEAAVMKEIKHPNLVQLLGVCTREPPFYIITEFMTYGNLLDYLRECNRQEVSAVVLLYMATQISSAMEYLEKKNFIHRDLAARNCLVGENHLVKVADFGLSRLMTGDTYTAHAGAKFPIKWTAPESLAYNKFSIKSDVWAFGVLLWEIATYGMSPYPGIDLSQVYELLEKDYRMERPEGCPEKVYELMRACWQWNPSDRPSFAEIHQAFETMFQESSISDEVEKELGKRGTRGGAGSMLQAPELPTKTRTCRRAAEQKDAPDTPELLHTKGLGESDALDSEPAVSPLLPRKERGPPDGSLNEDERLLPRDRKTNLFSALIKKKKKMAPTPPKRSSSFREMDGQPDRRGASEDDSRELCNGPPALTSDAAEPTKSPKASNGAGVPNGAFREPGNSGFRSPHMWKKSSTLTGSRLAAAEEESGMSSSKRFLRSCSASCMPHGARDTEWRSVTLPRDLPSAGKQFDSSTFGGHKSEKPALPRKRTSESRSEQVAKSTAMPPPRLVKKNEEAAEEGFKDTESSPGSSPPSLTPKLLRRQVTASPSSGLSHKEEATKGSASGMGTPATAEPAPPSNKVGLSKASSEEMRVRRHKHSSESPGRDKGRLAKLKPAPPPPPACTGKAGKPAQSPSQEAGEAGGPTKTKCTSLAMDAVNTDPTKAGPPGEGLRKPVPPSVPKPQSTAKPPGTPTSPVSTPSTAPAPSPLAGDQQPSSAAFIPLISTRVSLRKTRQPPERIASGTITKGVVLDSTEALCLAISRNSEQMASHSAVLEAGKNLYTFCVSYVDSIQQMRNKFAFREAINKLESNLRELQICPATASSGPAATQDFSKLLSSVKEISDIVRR

[25] = biological target: Abl(T315I)(h) (Homo sapiens (Human), UniProt P00519, T315I); type: biochemical
[26] = biological target: DAPK2(h) (Homo sapiens (Human), UniProt Q9UIK4); type: biochemical
[27] = biological target: SGK3(h) (Homo sapiens (Human), UniProt Q96BR1); type: biochemical
SGK3(h), sequence (Q96BR1 whole entry): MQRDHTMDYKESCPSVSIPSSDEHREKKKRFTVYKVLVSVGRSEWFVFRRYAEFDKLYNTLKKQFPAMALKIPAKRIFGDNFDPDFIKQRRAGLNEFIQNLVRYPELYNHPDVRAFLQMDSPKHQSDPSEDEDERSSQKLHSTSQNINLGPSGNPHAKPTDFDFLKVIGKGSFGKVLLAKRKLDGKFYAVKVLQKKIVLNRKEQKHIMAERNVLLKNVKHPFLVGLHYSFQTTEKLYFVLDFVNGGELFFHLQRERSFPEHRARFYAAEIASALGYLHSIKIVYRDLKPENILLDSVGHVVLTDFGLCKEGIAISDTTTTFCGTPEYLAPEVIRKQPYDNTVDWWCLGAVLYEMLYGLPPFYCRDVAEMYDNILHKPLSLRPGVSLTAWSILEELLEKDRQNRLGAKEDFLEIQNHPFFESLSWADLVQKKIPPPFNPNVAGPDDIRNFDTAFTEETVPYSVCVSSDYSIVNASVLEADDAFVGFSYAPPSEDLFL

[28] = biological target: MST2(h) (Homo sapiens (Human), UniProt Q13188); type: biochemical
[29] = biological target: PAK5(h) (Homo sapiens (Human), UniProt Q9P286); type: biochemical
PAK5(h), sequence (Q9P286 whole entry): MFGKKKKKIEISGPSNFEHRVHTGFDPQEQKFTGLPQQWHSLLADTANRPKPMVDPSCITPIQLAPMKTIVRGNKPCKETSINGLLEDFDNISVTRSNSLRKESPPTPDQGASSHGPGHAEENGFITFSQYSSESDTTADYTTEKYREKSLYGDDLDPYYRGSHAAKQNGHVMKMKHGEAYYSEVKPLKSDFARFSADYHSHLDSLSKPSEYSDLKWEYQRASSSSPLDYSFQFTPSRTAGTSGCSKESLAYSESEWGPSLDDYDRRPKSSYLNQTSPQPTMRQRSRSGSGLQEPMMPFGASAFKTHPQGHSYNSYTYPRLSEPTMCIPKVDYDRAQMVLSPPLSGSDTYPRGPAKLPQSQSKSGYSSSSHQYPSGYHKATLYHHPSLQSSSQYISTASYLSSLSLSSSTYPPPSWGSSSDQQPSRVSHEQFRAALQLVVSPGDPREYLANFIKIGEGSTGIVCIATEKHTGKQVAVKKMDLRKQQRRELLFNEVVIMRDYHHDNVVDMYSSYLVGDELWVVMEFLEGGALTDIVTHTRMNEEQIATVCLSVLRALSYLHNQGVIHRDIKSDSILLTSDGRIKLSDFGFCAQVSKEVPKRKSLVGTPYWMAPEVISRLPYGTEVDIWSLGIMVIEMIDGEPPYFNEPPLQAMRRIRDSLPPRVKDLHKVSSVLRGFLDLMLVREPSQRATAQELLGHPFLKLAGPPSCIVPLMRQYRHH

[30] = biological target: PKCγ(h) (Homo sapiens (Human), UniProt P05129); type: biochemical
[31] = biological target: Syk(h) (Homo sapiens (Human), UniProt P43405); type: biochemical
[32] = biological target: TSSK2(h) (Homo sapiens (Human), UniProt Q96PF2); type: biochemical
[33] = biological target: NEK6(h) (Homo sapiens (Human), UniProt Q9HC98); type: biochemical
[34] = biological target: Pyk2(h) (Homo sapiens (Human), UniProt Q14289); type: biochemical
[35] = biological target: FGFR3(h) (Homo sapiens (Human), UniProt P22607); type: biochemical
[36] = biological target: Itk(h) (Homo sapiens (Human), UniProt Q08881); type: biochemical
[37] = biological target: PKCζ(h) (Homo sapiens (Human), UniProt Q05513); type: biochemical
[38] = biological target: CHK1(h) (Homo sapiens (Human), UniProt O14757); type: biochemical
[39] = biological target: Arg(h) (Homo sapiens (Human), UniProt P42684); type: biochemical
[40] = biological target: cKit(h) (Homo sapiens (Human), UniProt P10721); type: biochemical
cKit(h), sequence (P10721 26-976): as the sequence (P10721 26-976 D816H) above, with H791D counted along it

PIM-1(h), sequence (P11309 whole entry): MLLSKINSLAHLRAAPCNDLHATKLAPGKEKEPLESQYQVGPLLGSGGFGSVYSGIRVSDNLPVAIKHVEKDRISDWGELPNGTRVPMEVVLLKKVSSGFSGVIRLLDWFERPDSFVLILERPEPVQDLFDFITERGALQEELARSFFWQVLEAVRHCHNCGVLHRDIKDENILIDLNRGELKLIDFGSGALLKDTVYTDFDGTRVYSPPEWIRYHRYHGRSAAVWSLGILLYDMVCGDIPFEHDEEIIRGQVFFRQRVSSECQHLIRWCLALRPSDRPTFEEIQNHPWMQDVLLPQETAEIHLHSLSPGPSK

remaining activity at 1 µM [1]: 1%
remaining activity at 1 µM [2]: 6%
remaining activity at 1 µM [3]: 7%
remaining activity at 1 µM [4]: 7%
remaining activity at 1 µM [5]: 16%
remaining activity at 1 µM [6]: 17%
remaining activity at 1 µM [7]: 17%
remaining activity at 1 µM [8]: 20%
remaining activity at 1 µM [9]: 26%
remaining activity at 1 µM [10]: 35%
remaining activity at 1 µM [11]: 37%
remaining activity at 1 µM [12]: 50%
remaining activity at 1 µM [13]: 56%
remaining activity at 1 µM [14]: 63%
remaining activity at 1 µM [15]: 71%
remaining activity at 1 µM [16]: 74%
remaining activity at 1 µM [17]: 74%
remaining activity at 1 µM [18]: 76%
remaining activity at 1 µM [19]: 79%
remaining activity at 1 µM [20]: 82%
remaining activity at 1 µM [21]: 83%
remaining activity at 1 µM [22]: 87%
% remaining activity [23]: 88%
remaining activity at 1 µM [24]: 90%
remaining activity at 1 µM [25]: 92%
remaining activity at 1 µM [26]: 92%
remaining activity at 1 µM [27]: 92%
remaining activity at 1 µM [28]: 93%
remaining activity at 1 µM [29]: 93%
remaining activity at 1 µM [30]: 93%
remaining activity at 1 µM [31]: 95%
remaining activity at 1 µM [32]: 95%
remaining activity at 1 µM [33]: 97%
remaining activity at 1 µM [34]: 97%
remaining activity at 1 µM [35]: 105%
remaining activity at 1 µM [36]: 105%
remaining activity at 1 µM [37]: 107%
remaining activity at 1 µM [38]: 113%
remaining activity at 1 µM [39]: 119%
remaining activity at 1 µM [40]: 121%
Structure (SMILES): CCn1c(N2CCNCC2)nc2c(Br)c(Br)c(Br)c(Br)c21 [Compound 416, 4,5,6,7-tetrabromo-1-ethyl-2-(piperazin-1-yl)-1H-benzo[d]imidazole]
